ChEMBL document CHEMBL5120961, “N-Arylimidazoliums as Highly Selective Biomimetic Antimicrobial Agents” (J Med Chem, 2022)
≈ marks a conversion by molar mass, not a printed value. Calls of active or inactive are those of the source. No cut-off for these calls is given here.

Assays:
[1] = tested on: Staphylococcus aureus; experiment: Antibacterial activity against methicillin-resistant Staphylococcus aureus ATCC 43300 assessed as inhibition of bacterial growth incubated for 16 to 18 hrs by broth microdilution method; format: functional; settings: time 16-18 hrs
[2] = tested on: Staphylococcus aureus; experiment: Antibacterial activity against Staphylococcus aureus ATCC 25923 assessed as inhibition of bacterial growth incubated for 16 to 18 hrs by broth microdilution method; format: functional; settings: time 16-18 hrs
[3] = tested on: Escherichia coli; experiment: Antibacterial activity against Escherichia coli ATCC 25922 assessed as inhibition of bacterial growth incubated for 16 to 18 hrs by broth microdilution method; format: functional; settings: time 16-18 hrs
[4] = tested on: Erythrocyte; experiment: Hemolytic activity in rabbit erythrocytes incubated for 1 hr; format: toxicity, cell-based, Oryctolagus cuniculus
[5] = Selectivity ratio of HC5 for hemolytic activity in rabbit erythrocytes to MIC for antibacterial activity against methicillin-resistant Staphylococcus aureus ATCC 43300; format: toxicity, cell-based
[6] = tested on: Enterococcus faecalis; experiment: Antibacterial activity against Enterococcus faecalis ATCC 29212 assessed as inhibition of bacterial growth incubated for 16 to 18 hrs by broth microdilution method; format: functional; settings: time 16-18 hrs
[7] = tested on: Acinetobacter baumannii; experiment: Antibacterial activity against Acinetobacter baumannii ATCC 19606 assessed as inhibition of bacterial growth incubated for 16 to 18 hrs by broth microdilution method; format: functional; settings: time 16-18 hrs
[8] = tested on: Pseudomonas aeruginosa; experiment: Antibacterial activity against Pseudomonas aeruginosa ATCC 27853 assessed as inhibition of bacterial growth incubated for 16 to 18 hrs by broth microdilution method; format: functional; settings: time 16-18 hrs
[9] = tested on: Klebsiella pneumoniae; experiment: Antibacterial activity against Klebsiella pneumoniae CMCC(B) 46117 assessed as inhibition of bacterial growth incubated for 16 to 18 hrs by broth microdilution method; format: functional; settings: time 16-18 hrs
[10] = tested on: Staphylococcus aureus; experiment: Bactericidal activity against Staphylococcus aureus ATCC 25923 assessed as eradication of bacterial colonies at 4XMIC measured after 15 mins by time-kill kinetics analysis; format: functional, organism-based
[11] = tested on: Escherichia coli; experiment: Bactericidal activity against Escherichia coli ATCC 25922 assessed as eradication of bacterial colonies at 16XMIC measured after 30 mins time-kill kinetics analysis; format: functional, organism-based
[12] = Increase in intracellular ROS level in Staphylococcus aureus ATCC 25923 at 4XMIC measured after 10 mins by DCFH-DA staining based fluorescence analysis relative to control; format: functional
[13] = Increase in intracellular ROS level in Escherichia coli ATCC 25922 at 4XMIC measured after 10 mins by DCFH-DA staining based fluorescence analysis relative to control; format: functional
[14] = tested on: Staphylococcus aureus; experiment: Antibacterial activity against Staphylococcus aureus ATCC 25923 assessed as inhibition of bacterial growth incubated for 16 to 18 hrs in presence of ROS scavenger, NAC by broth microdilution method; format: functional; settings: time 16-18 hrs
[15] = tested on: Escherichia coli; experiment: Antibacterial activity against Escherichia coli ATCC 25922 assessed as inhibition of bacterial growth incubated for 16 to 18 hrs in presence of ROS scavenger, NAC by broth microdilution method; format: functional; settings: time 16-18 hrs
[16] = tested on: Staphylococcus aureus; experiment: Antibacterial activity against methicillin-resistant Staphylococcus aureus ATCC 43300 assessed as inhibition of bacterial growth measured after 10 passages by broth microdilution method; format: functional, organism-based
[17] = tested on: Staphylococcus aureus; experiment: Inhibition of biofilm formation in methicillin-resistant Staphylococcus aureus ATCC 43300 incubated for 24 hrs under stationary conditions by crystal violet staining based analysis; format: functional, organism-based
[18] = tested on: Staphylococcus aureus; experiment: Inhibition of biofilm formation in methicillin-resistant Staphylococcus aureus ATCC 43300 at MIC incubated for 24 hrs under stationary conditions by crystal violet staining based analysis; format: functional
[19] = tested on: Staphylococcus aureus; experiment: Disruption of established biofilm in methicillin-resistant Staphylococcus aureus ATCC 43300 assessed as reduction of relative biofilm mass incubated for 24 hrs by crystal violet staining based analysis; format: functional, organism-based; settings: DDE = dose-dependent effect
[20] = tested on: Staphylococcus aureus; experiment: Disruption of established biofilm in methicillin-resistant Staphylococcus aureus ATCC 43300 assessed as reduction of relative biofilm mass at 64XMIC incubated for 24 hrs by crystal violet staining based analysis; format: functional
[21] = Cytotoxicity against human HEK293 cells assessed as reduction of cell viability incubated for 48 hrs by MTT assay; format: toxicity, cell-based
[22] = Half-life in Sprague-Dawley rat at 8 mg/kg, iv by LC-MS analysis; format: ADME, organism-based; settings: in vivo
[23] = AUC (0 to infinity) in Sprague-Dawley rat at 8 mg/kg, iv by LC-MS analysis; format: ADME, organism-based; parameters: time infinity, dose 8 mg/kg, route iv; settings: in vivo
[24] = Acute toxicity in BALB/c mouse assessed as lethargy at >12 mg/kg, iv; format: organism-based; settings: in vivo
[25] = Acute toxicity in BALB/c mouse assessed as clonic convulsion at >12 mg/kg, iv; format: organism-based; settings: in vivo
[26] = Acute toxicity in BALB/c mouse assessed as anorexia at >12 mg/kg, iv; format: organism-based; settings: in vivo
[27] = Acute toxicity in BALB/c mouse assessed as ruffled fur at >12 mg/kg, iv; format: organism-based; settings: in vivo
[28] = Acute toxicity in BALB/c mouse assessed as animal's death at >12 mg/kg, iv; format: organism-based; settings: in vivo
[29] = Subacute toxicity in BALB/c mouse assessed as animal's death at 4 to 8 mg/kg, iv administered everyday for 7 days; format: organism-based; settings: in vivo, 168 h, dose 4-8 mg/kg, time 7 day
[30] = Subacute toxicity in BALB/c mouse assessed as animals abnormal behaviour at 4 to 8 mg/kg, iv administered everyday for 7 days; format: organism-based; settings: in vivo, 168 h, dose 4-8 mg/kg, time 7 day
[31] = Subacute toxicity in BALB/c mouse assessed as histopathological changes of heart at 4 to 8 mg/kg, iv administered for 7 days and measured on day 14 by hematoxyin-eosin staining based analysis; format: organism-based; settings: in vivo, 336 h, dose 4-8 mg/kg, time 14 day
[32] = Subacute toxicity in BALB/c mouse assessed as histopathological changes of liver at 4 to 8 mg/kg, iv administered for 7 days and measured on day 14 by hematoxyin-eosin staining based analysis; format: organism-based; settings: in vivo, 336 h, dose 4-8 mg/kg, time 14 day
[33] = Subacute toxicity in BALB/c mouse assessed as histopathological changes of spleen at 4 to 8 mg/kg, iv administered for 7 days and measured on day 14 by hematoxyin-eosin staining based analysis; format: organism-based; settings: in vivo, 336 h, dose 4-8 mg/kg, time 14 day
[34] = Subacute toxicity in BALB/c mouse assessed as histopathological changes of lungs at 4 to 8 mg/kg, iv administered for 7 days and measured on day 14 by hematoxyin-eosin staining based analysis; format: organism-based; settings: in vivo, 336 h, dose 4-8 mg/kg, time 14 day
[35] = Subacute toxicity in BALB/c mouse assessed as histopathological changes of kidney at 4 to 8 mg/kg, iv administered for 7 days and measured on day 14 by hematoxyin-eosin staining based analysis; format: organism-based; settings: in vivo, 336 h, dose 4-8 mg/kg, time 14 day
[36] = Tmax in Sprague-Dawley rat at 8 mg/kg, iv by LC-MS analysis; format: ADME, organism-based; settings: in vivo
[37] = MRT (0 to infinity) in Sprague-Dawley rat at 8 mg/kg, iv by LC-MS analysis; format: ADME, organism-based; settings: in vivo
[38] = Cmax in Sprague-Dawley rat at 8 mg/kg, iv by LC-MS analysis; format: ADME, organism-based; parameters: dose 8 mg/kg, route iv; settings: in vivo
[39] = Mean clearance rate, Clz in Sprague-Dawley rat at 8 mg/kg, iv by LC-MS analysis; format: ADME, organism-based; settings: in vivo
[40] = tested on: Staphylococcus aureus; experiment: Antibacterial activity against methicillin-resistant Staphylococcus aureus ATCC 43300 infected in BALB/c mouse assessed as increase in animal's survival rate at 4 mg/kg, iv administered at 1, 6, 25 and 30 hrs post-infection and measured for 7 day post-infection; format: functional, organism-based
[41] = tested on: Staphylococcus aureus; experiment: Antibacterial activity against methicillin-resistant Staphylococcus aureus ATCC 43300 infected in BALB/c mouse assessed as reduction in bacterial burden in lungs at 4 mg/kg, iv administered at 1, 6, 25 and 30 hrs post-infection and measured on day 7 post-infection by colony forming unit assay; format: functional, organism-based; settings: time 7.0 day
[42] = tested on: Staphylococcus aureus; experiment: Antibacterial activity against methicillin-resistant Staphylococcus aureus ATCC 43300 infected in BALB/c mouse assessed as reduction in TNF-alpha content in lungs at 4 mg/kg, iv administered at 1, 6, 25 and 30 hrs post-infection and measured on day 7 post-infection by ELISA; format: functional, organism-based; settings: time 7.0 day
[43] = tested on: Staphylococcus aureus; experiment: Antibacterial activity against methicillin-resistant Staphylococcus aureus ATCC 43300 infected in BALB/c mouse assessed as increase in IL-10 content in lungs at 4 mg/kg, iv administered at 1, 6, 25 and 30 hrs post-infection and measured on day 7 post-infection by ELISA; format: functional, organism-based; settings: time 7.0 day
[44] = tested on: Staphylococcus aureus; experiment: Antibacterial activity against methicillin-resistant Staphylococcus aureus ATCC 43300 infected in BALB/c mouse assessed as reduction in MPO content in lungs at 4 mg/kg, iv administered at 1, 6, 25 and 30 hrs post-infection and measured on day 7 post-infection by ELISA; format: functional, organism-based; settings: time 7.0 day
[45] = tested on: Staphylococcus aureus; experiment: (§1) Antibacterial activity against methicillin-resistant Staphylococcus aureus ATCC 43300 infected in BALB/c mouse assessed as reduction of NF-kappaB p65 expression in lungs at 4 mg/kg, iv administered at 1, 6, 25 and 30 hrs post-infection and measured on day 7 post-infection by western blot analysis; format: functional, organism-based; settings: time 7.0 day
[46] = tested on: Staphylococcus aureus; experiment: as §1, with “histopathological changes of pulmonary tissue” for “NF-kappaB p65 expression in lungs”, “hematoxylin-eosin staining based” for “western blot”; format: functional, organism-based; settings: time 7.0 day
[47] = tested on: Staphylococcus aureus; experiment: Disruption of established biofilm in methicillin-resistant Staphylococcus aureus ATCC 43300 assessed as reduction of relative biofilm mass at 128XMIC incubated for 24 hrs by crystal violet staining based analysis; format: functional

CCCCCC[n+]1ccn(-c2ccc(C#Cc3ccc(-n4cc[n+](CCCCCC)c4)cc3)cc2)c1.[Br-].[Br-]
MIC [1]: 0.5 mg/L | MIC [2]: 0.25 mg/L | MIC [3]: 1 mg/L | HC5 [4]: 800 µg/mL | selectivity ratio [5]: 1600 | MIC [6]: 8 mg/L | MIC [7]: 32 mg/L | MIC [8]: 32 mg/L | MIC [9]: 32 mg/L | Activity [10]: Active | Activity [11]: Active | fold change (FC) [12]: 2 | fold change (FC) [13]: 20 | MIC [14]: 64 mg/L | MIC [15]: 32 mg/L | Activity [16]: Active | inhibition [17]: Active | inhibition (INH) [18]: 100% | Activity [19]: Dde | inhibition (INH) [20]: 69% | CC50 at 48 h [21]: 224 mg/L | half-life [22]: 51.4 min | AUC(0-inf) [23]: 5.12 µg·h/mL | Activity [24]: Non-Toxic | Activity [25]: Non-Toxic | Activity [26]: Non-Toxic | Activity [27]: Non-Toxic | Activity [28]: Non-Toxic | Activity [29]: Non-Toxic | Activity [30]: Non-Toxic | Activity [31]: Non-Toxic | Activity [32]: Non-Toxic | Activity [33]: Non-Toxic | Activity [34]: Non-Toxic | Activity [35]: Non-Toxic | Tmax [36]: 4.98 min | MRT inf [37]: 32.5 min | Cmax [38]: 12 µg/mL | clearance [39]: 1.63 L/h/kg | Activity [40]: Active | Activity [41]: Active | Activity [42]: Active | Activity [43]: Active | Activity [44]: Active | Activity [45]: Active | Activity [46]: Active

CCCCCC[n+]1ccn(CCCCn2cc[n+](CCCCCC)c2)c1.[Br-].[Br-]
MIC [1]: 500 mg/L | MIC [2]: 125 mg/L | MIC [3]: 125 mg/L | HC5 [4]: 8000 µg/mL | selectivity ratio [5]: 16

CN[C@H](CC(C)C)C(=O)N[C@H]1C(=O)N[C@@H](CC(N)=O)C(=O)N[C@H]2C(=O)N[C@H]3C(=O)N[C@H](C(=O)N[C@H](C(=O)O)c4cc(O)cc(O)c4-c4cc3ccc4O)[C@H](O)c3ccc(c(Cl)c3)Oc3cc2cc(c3O[C@@H]2O[C@H](CO)[C@@H](O)[C@H](O)[C@H]2O[C@H]2C[C@](C)(N)[C@H](O)[C@H](C)O2)Oc2ccc(cc2Cl)[C@H]1O [VANCOMYCIN]
MIC [6]: 1 mg/L (≈ 0.69 µM) | inhibition [17]: Active | inhibition (INH) [47]: 37% | Activity [46]: Active
